{"source": "patent US5204329A", "about": "“Treatment of organ transplantation rejection” (Du Pont Merck Pharmaceutical Company, priority 1990, dated 1993)", "key": {"[1]": {"test_system": "contact sensitivity response to 2,4-dinitrofluorobenzene (DNFB)", "assay": "Contact Sensitivity Response to DNFB in Mice (ear swelling)", "assay_type": "in vivo, Balb/c female mice", "method": "Balb/c female mice ([…].20 g, Charles River) were sensitized on the shaved abdomen with 25 μl of 0.5% 2,4-dinitrofluorobenzene (DNFB, Eastman Kodak Co.) in a vehicle of 4:1 acetone:olive oil on days 0 and 1. Mice were ear challenged with 20 μl of 0.2% DNFB in a vehicle of 4:1 acetone:olive oil on day 5. An identical segment of the ear was measured immediately before challenge and 24 hours later with an engineer's micrometer. Ear swelling was expressed as the difference in ear thickness before and after challenge in units of 10^-4 inches±SEM. Percent suppression was calculated as: [formula] […] Control animals received only vehicle (0.25% Methocel®). Negative controls were not sensitized on days 0 and 1 but were ear challenged on day 5. Ten mice were used per group.\nContact sensitivity to DNFB is a form of delayed-type hypersensitivity which has been extensively studied to gain an understanding of the regulation of immunologic processes (Claman et. al. (1980), Immunological Rev. 50:105-132). This reaction is mediated by T lymphocytes that become sensitized to antigen by proliferating and developing into mature effector cells (Claman et. al. (1980), Immunological Rev. 105-132). This cell-mediated immune response (T-cell mediated immunity) is central to many disease states such as organ transplantation rejection and graft versus host disease (Benacerraf and Unanue (1979), Textbook of Immunology, Williams & Wilkins Co.,; Eisen (1980), Immunology, An Introduction to Molecular and Cellular Principles of the Immune Responses, Harper & Row, Inc.; Loveland and McKenzie (1982), Inflammation, Basic Principles and Clinical Correlates, Raven Press). […]"}, "[2]": {"conditions": "known immunosuppressive agents; listed as AZA; cited from earlier work"}, "[3]": {"test_system": "dihydroorotate dehydrogenase", "conditions": "consequent inhibition of pyrimidine nucleotide biosynthesis; Chen et al. (1986); cited from earlier work"}, "[4]": {"conditions": "Table 1, 0.4 mg/kg oral, days 0-6"}, "[5]": {"conditions": "Table 1, 2.0 mg/kg oral, days 0-6"}, "[6]": {"conditions": "Table 1, 10.0 mg/kg oral, days 0-6"}, "[7]": {"conditions": "Table 1, 20.0 mg/kg oral, days 0-6"}, "[8]": {"conditions": "Table 4, dosing only day 0 and 1, 20.0 mg/kg"}}, "note": "Where “and” joins values, the source holds several entries; their conditions need not be identical. Equal values may be shown once.", "data": [{"smiles": "Cn1cnc([N+](=O)[O-])c1Sc1ncnc2nc[nH]c12", "note": "[Azathioprine, reference compound]", "values": [{"measurement": "Azathioprine ED50", "setting": "[1]; Table 3, Ex. 28 at 0 mg/kg", "result": 38.0, "unit": "mg/kg"}, {"measurement": "Azathioprine ED50", "setting": "[1]; Table 3, with Ex. 28 at 0.1 mg/kg", "result": 42.0, "unit": "mg/kg"}, {"measurement": "Azathioprine ED50", "setting": "[1]; Table 3, with Ex. 28 at 0.3 mg/kg", "result": 43.0, "unit": "mg/kg"}, {"measurement": "Azathioprine ED50", "setting": "[1]; Table 3, with Ex. 28 at 1.0 mg/kg", "result": 7.5, "unit": "mg/kg"}, {"measurement": "Azathioprine ED50", "setting": "[1]; Table 3, with Ex. 28 at 3.0 mg/kg", "result": "< 6.3", "unit": "mg/kg"}, {"measurement": "Azathioprine ED50", "setting": "[1]; Table 3, with Ex. 28 at 10.0 mg/kg", "result": "< 6.3", "unit": "mg/kg"}, {"measurement": "% Suppression of Ear Swelling", "setting": "[1]; agent alone, 6.3 mg/kg, days 0-6", "result": "2.5 ± 4.2", "unit": "%"}, {"measurement": "% Suppression of Ear Swelling", "setting": "[1]; agent alone, 12.5 mg/kg, days 0-6", "result": "15.9 ± 3.3", "unit": "%"}, {"measurement": "% Suppression of Ear Swelling", "setting": "[1]; agent alone, 12.5 mg/kg, days 0-6, listed as azathioprine", "result": 15.9, "unit": "%"}, {"measurement": "% Suppression of Ear Swelling", "setting": "[1]; agent alone, 25.0 mg/kg, days 0-6", "result": "29.7 ± 4.1", "unit": "%"}, {"measurement": "% Suppression of Ear Swelling", "setting": "[1]; agent alone, 50.0 mg/kg, days 0-6", "result": "72.1 ± 3.1", "unit": "%"}, {"measurement": "% Suppression of Ear Swelling", "setting": "[1]; agent alone, 100.0 mg/kg, days 0-6", "result": "97.7 ± 1.6", "unit": "%"}, {"measurement": "clinically observed toxicities / side effects", "setting": "[2]", "result": "nephrotoxicity and hepatoxicity"}]}, {"smiles": "Cc1c(-c2ccc(-c3ccccc3F)cc2)nc2ccc(F)cc2c1C(=O)O", "note": "[Example 28, 2-(2'-fluoro-1,1'-biphenyl-4-yl)-6-fluoro-3-methyl-4-quinoline carboxylic acid]", "values": [{"measurement": "ED50", "setting": "[1]; Mus musculus, Table 1, agent alone, oral, days 0-6", "result": 0.95, "unit": "mg/kg"}, {"measurement": "% Suppression", "setting": "[1]; [4]", "result": 30.20, "unit": "%"}, {"measurement": "Ear Swelling (units ± SEM), increase in ear thickness from day 5 to day 6", "setting": "[1]; [4]", "result": "51.95 ± 2.33 10^-4 inches"}, {"measurement": "% Suppression", "setting": "[1]; [5]", "result": 66.10, "unit": "%"}, {"measurement": "Ear Swelling (units ± SEM), increase in ear thickness from day 5 to day 6", "setting": "[1]; [5]", "result": "25.61 ± 3.39 10^-4 inches"}, {"measurement": "% Suppression", "setting": "[1]; [6]", "result": 92.28, "unit": "%"}, {"measurement": "Ear Swelling (units ± SEM), increase in ear thickness from day 5 to day 6", "setting": "[1]; [6]", "result": "6.40 ± 1.09 10^-4 inches"}, {"measurement": "% Suppression", "setting": "[1]; [7]", "result": 94.53, "unit": "%"}, {"measurement": "Ear Swelling (units ± SEM), increase in ear thickness from day 5 to day 6", "setting": "[1]; [7]", "result": "4.75 ± 1.20 10^-4 inches"}, {"measurement": "Ex. 28 ED50", "setting": "[1]; Table 2, with cyclosporin A 6.3 mg/kg", "result": 1.0, "unit": "mg/kg"}, {"measurement": "Ex. 28 ED50", "setting": "[1]; Table 2, with cyclosporin A 12.5 mg/kg", "result": 0.8, "unit": "mg/kg"}, {"measurement": "Ex. 28 ED50", "setting": "[1]; Table 2, with cyclosporin A 25.0 mg/kg", "result": 0.7, "unit": "mg/kg"}, {"measurement": "Ex. 28 ED50", "setting": "[1]; Table 2, with cyclosporin A 30.0 mg/kg", "result": 0.4, "unit": "mg/kg"}, {"measurement": "Ex. 28 ED50", "setting": "[1]; Table 2, with cyclosporin A 50.0 mg/kg", "result": 0.4, "unit": "mg/kg"}, {"measurement": "Ex. 28 ED50", "setting": "[1]; Table 2, with cyclosporin A 70.0 mg/kg", "result": "< 0.3", "unit": "mg/kg"}, {"measurement": "Ex. 28 ED50", "setting": "[1]; Table 3, with azathioprine 6.3 mg/kg", "result": 1.3, "unit": "mg/kg"}, {"measurement": "Ex. 28 ED50", "setting": "[1]; Table 3, with azathioprine 12.5 mg/kg", "result": 0.8, "unit": "mg/kg"}, {"measurement": "Ex. 28 ED50", "setting": "[1]; Table 3, with azathioprine 25.0 mg/kg", "result": 0.7, "unit": "mg/kg"}, {"measurement": "Ex. 28 ED50", "setting": "[1]; Table 3, with azathioprine 50.0 mg/kg", "result": "< 0.1", "unit": "mg/kg"}, {"measurement": "Ex. 28 ED50", "setting": "[1]; Table 3, with azathioprine 100.0 mg/kg", "result": "< 0.1", "unit": "mg/kg"}, {"measurement": "% Suppression", "setting": "[1]; [8]", "result": 14.4, "unit": "%"}, {"measurement": "ΔEar Swelling", "setting": "[1]; [8]", "result": "59.6 ± 2.5"}, {"measurement": "Ex. 28 ED50", "setting": "[1]; Tables 2 and 3, cyclosporin A / azathioprine at 0 mg/kg", "result": 1.4, "unit": "mg/kg"}, {"measurement": "% Suppression of Ear Swelling", "setting": "[1]; agent alone, 0.1 mg/kg, days 0-6, listed as Ex. 28, 0.1 mg/kg", "result": "6.5 ± 2.9% and 6.5 ± 2.8%"}, {"measurement": "% Suppression of Ear Swelling", "setting": "[1]; agent alone, 0.3 mg/kg, days 0-6", "result": "7.3 ± 2.4", "unit": "%"}, {"measurement": "% Suppression of Ear Swelling", "setting": "[1]; agent alone, 1.0 mg/kg, days 0-6", "result": 31.4, "unit": "%"}, {"measurement": "% Suppression of Ear Swelling", "setting": "[1]; agent alone, 1.0 mg/kg, days 0-6, listed as Ex. 28, 1 mg/kg", "result": "31.4 ± 3.3", "unit": "%"}, {"measurement": "% Suppression of Ear Swelling", "setting": "[1]; agent alone, 3.0 mg/kg, days 0-6", "result": "91.9 ± 2.3", "unit": "%"}, {"measurement": "% Suppression of Ear Swelling", "setting": "[1]; agent alone, 10.0 mg/kg, days 0-6", "result": "93.9 ± 2.4", "unit": "%"}, {"measurement": "unique mechanism of action: inhibition of dihydroorotate dehydrogenase", "setting": "[3]", "result": "inhibition of dihydroorotate dehydrogenase"}]}]}
